Six compounds from ChEMBL document CHEMBL1201862, “PubChem BioAssay data set” (2004) can be followed below.

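Each compound was tested at five concentrations against cells in 96-well plates for 48 hours. GI50: concentration for 50% inhibition of growth.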 The source made the active and inactive calls. Rule as the data show it: active = GI50 up to about 1.1 µM and inactive = higher.

Test systems include Hs-578T; COLO 205; NCI-H522; MCF7; KM12; M19-MEL; HOP-92; MDA-N; HCC 2998; HCT-15; SF-268; ACHN; SNB-19; RPMI-8226; SK-MEL-2; SK-MEL-5; UACC-257; EKVX; A549; SF-539.
Holding throughout (experiment): inhibition of tumour cell growth, NCI panel, 48 h

Turning to `COC1/C=C\C=C(/C)C(=O)NC2=CC(=O)C(N)=C(CC(C)CC(OC)C(O)C(C)C=C(C)C1OC(N)=O)C2=O` (stereo unspecified), the GI50 with Hs-578T was < 10 nM (active); in the assay with COLO 205, < 10 nM (active); in the assay with NCI-H522, 23.4 nM (active); in the assay on MCF7, 41.6 nM (active); in the assay on KM12 it was 24.4 nM (active); in the assay on M19-MEL, < 10 nM (active). The GI50 in the assay with HOP-92 is 15.6 nM (active); in the assay with MDA-N, < 17.1 nM (active); with HCC 2998, 26.8 nM (active); in the assay on HCT-15 it was 333 nM; with SF-268, 419 nM (active); in the assay with ACHN it was 93.5 nM (active). In addition, the GI50 is 42.4 nM (active) in the assay with SNB-19; 195 nM (active) in the assay with RPMI-8226; < 10 nM (active) in the assay on SK-MEL-2; 42 nM (active) with SK-MEL-5; 30 nM (active) with UACC-257; 3970 nM (inactive) in the assay on EKVX. The GI50 with A549 is 21.6 nM (active).

`CC(C)CCCCCCCCCCCCC(=O)NCC(=O)NC1C(O)C(O)C(Nc2[nH]cnc3ncnc2-3)OC1C(O)CO` (stereo unspecified): the GI50 in the assay with Hs-578T was 172 nM (active); with NCI-H522, 0.664 nM (active); in the assay on MCF7 it was 23.4 nM (active); in the assay on KM12, 0.575 nM (active); in the assay on M19-MEL, 0.211 nM (active); in the assay with HOP-92, 0.49 nM (active). The GI50 with MDA-N is 229 nM (active); in the assay with HCC 2998, 0.18 nM (active); in the assay on HCT-15, 65.3 nM; in the assay on SF-268, 3.59 nM (active); in the assay on ACHN, 225 nM (active); in the assay on SNB-19 it was 0.564 nM (active). The GI50 in the assay on RPMI-8226 was 0.525 nM (active); in the assay with SK-MEL-2, 5.79 nM (active); with SK-MEL-5 it was 1.14 nM (active); in the assay on UACC-257, 0.605 nM (active); with EKVX, 1.75 nM (active); with SF-539 it was 0.849 nM (active).

With `CC(=O)n1ccc2c(Cl)ncnc21`, the GI50 in the assay on COLO 205 is > 100000 nM (inactive); in the assay on NCI-H522, > 37600 nM (inactive); in the assay with KM12, > 100000 nM (inactive); in the assay with M19-MEL it was > 100000 nM (inactive); in the assay on HOP-92 it was > 100000 nM (inactive); in the assay on HCC 2998, > 100000 nM (inactive). For the same compound, the GI50 with HCT-15 was greater than 100000 nM; in the assay on SF-268, > 100000 nM (inactive); with ACHN, > 100000 nM (inactive); in the assay with SNB-19, > 100000 nM (inactive); in the assay with RPMI-8226, > 100000 nM (inactive); with SK-MEL-2, > 100000 nM (inactive). Besides, the GI50 was > 100000 nM (inactive) in the assay on SK-MEL-5; > 100000 nM (inactive) in the assay with UACC-257; > 67300 nM (inactive) with EKVX; > 100000 nM (inactive) in the assay on SF-539; > 100000 nM (inactive) in the assay on A549.

As for `NC1=C(Br)C(=O)c2ncccc2C1=O`, the GI50 in the assay on COLO 205 is 1710 nM (inactive); in the assay with NCI-H522 it was 321 nM (active); in the assay on KM12, 1120 nM (active); in the assay on M19-MEL, 159 nM (active); in the assay on HOP-92, 1450 nM (inactive); in the assay on HCC 2998 it was 1110 nM (active). Further, the GI50 was 352 nM with HCT-15; 420 nM (active) in the assay on SF-268; 406 nM (active) in the assay with ACHN; 1250 nM (inactive) in the assay with SNB-19; 942 nM (active) in the assay with RPMI-8226; 346 nM (active) in the assay with SK-MEL-2. Moreover, the GI50 is 284 nM (active) in the assay on SK-MEL-5; 483 nM (active) in the assay on UACC-257; 1610 nM (inactive) with EKVX; 189 nM (active) in the assay on SF-539; 855 nM (active) in the assay with A549.

For `Cn1c2ccccc2n2c3nc4ccccc4nc3c(C#N)c12`, the GI50 is 56000 nM (inactive) in the assay on Hs-578T; 70000 nM (inactive) in the assay on COLO 205; 5900 nM (inactive) in the assay with NCI-H522; > 75000 nM (inactive) with MCF7; 9440 nM (inactive) in the assay with KM12; < 10 nM (active) in the assay on M19-MEL. Also, the GI50 with HOP-92 was > 100000 nM (inactive); in the assay on MDA-N, > 100000 nM (inactive); with HCC 2998, 9680 nM (inactive); in the assay with HCT-15, 9290 nM; in the assay on SF-268 it was 81300 nM (inactive); in the assay on ACHN it was 75300 nM (inactive). The GI50 in the assay on SNB-19 is > 100000 nM (inactive); with RPMI-8226 it was 71000 nM (inactive); in the assay on SK-MEL-2, > 4650 nM (inactive); in the assay on SK-MEL-5, 4400 nM (inactive); in the assay with UACC-257, > 82600 nM (inactive); with EKVX, > 100000 nM (inactive). The results for the GI50 in the assay on SF-539 and in the assay on A549 were 62800 nM (inactive) and > 100000 nM (inactive), respectively.

On to `Nc1ccc(S(=O)(=O)Nc2ccc(Nc3c4ccccc4nc4ccccc34)cc2)cc1`, for which the GI50 is 1860 nM (inactive) in the assay with Hs-578T; 483 nM (active) in the assay on COLO 205; 69.5 nM (active) in the assay on NCI-H522; < 10 nM (active) in the assay on MCF7; 169 nM (active) in the assay with KM12; 115 nM (active) in the assay on M19-MEL. For the same compound, the GI50 was 500 nM (active) in the assay with HOP-92; 10200 nM (inactive) in the assay with MDA-N; 164 nM (active) in the assay on HCC 2998; 579 nM with HCT-15; 16.8 nM (active) in the assay with SF-268; < 11.4 nM (active) in the assay with ACHN. Besides, the GI50 in the assay on SNB-19 is 18.2 nM (active); in the assay on RPMI-8226 it was 16.4 nM (active); in the assay on SK-MEL-2, 769 nM (active); with SK-MEL-5 it was 19.9 nM (active); in the assay on UACC-257, 1870 nM (inactive); in the assay on EKVX it was 1820 nM (inactive). The figures for the GI50 in the assay on SF-539 and in the assay with A549 were 16.6 nM (active) and < 10 nM (active), respectively.
